We go through nine compounds from patent publication EP4678638A1, “NEW E3 UBIQUITIN LIGASE LIGAND, PROTEIN DEGRADATION AGENT AND USE THEREOF” (priority 2023, dated 2024).

Molecules are shown by their SMILES. pIC50: −log10 of the molar value. Read-outs that look alike come from different tables or passages of the source.

For one test, the system named is LNcap. In words: CCK-8 proliferation, LNcap. The class given is cell-based. To be noted: Homo sapiens; Table B10, compounds designed based on the IRAK4 inhibitors; Lncap cells; read-out: Inhibitory activity (IC50, nM) on tumor cell proliferation, Lncap. Here is the method:
(§1) The tumor cells used herein were cultured in a cell culture medium listed in table A1 at 37°C in an incubator with 5% CO2. Prior to experimentation, all cell lines used were correctly identified by STR profiling, and tested negative for mycoplasma contamination using a mycoplasma detection kit through routine screenings. Table A1. Tumor cells and cell culture medium used in the present disclosure
(§2) IC50 values of the compounds of the present disclosure (including the compounds in Table 1, and compounds of examples) were measured using the Meilun Cell Counting Kit-8 kit from Dalian Meilun Biotech Co., Ltd. Assay details are as follows: tumor cells were seeded in a 96-well plate at a density listed in Table A2. After 24h, 100 µL of the inoculated cells were treated with 0.5µL of the compounds of the present disclosure (including the compounds in Tables 1 and 2, and compounds of examples) at 10 different successively decreasing concentrations (starting at the highest concentration of 10µM; 5-fold serial dilutions). After the cells were treated with the compounds of the present disclosure for a period of time, the cell viability detection reagent was added to the culture medium for cell viability assessment according to the instructions provided with the CCK-8 kit. […] The growth inhibition of the compounds of the present disclosure on cells was plotted by Prism Graphpad software, and the IC50 values of the compounds of the present disclosure were calculated therefrom. […] Seeding protocol and treatment time for tumor cells

The subject of another test is H1299. Kind of test: CCK-8 proliferation, H1299. On the set-up: species or system Human. To be noted: Homo sapiens, NCI-H1299; Table B10, compounds designed based on the IRAK4 inhibitors; H1299 cells; read-out: Inhibitory activity (IC50, nM) on tumor cell proliferation, H1299. Here is the method:
as §1, §2

A further test has as its system SR. In words: CCK-8 proliferation, SR. The class given is cell-based, Human. To be noted: Homo sapiens; Table B10, compounds designed based on the IRAK4 inhibitors; SR cells; read-out: Inhibitory activity (IC50, nM) on tumor cell proliferation, SR. Put shortly:
(§3)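 Cells seeded, then after 24 h treated with 10 concentrations (top 10 µM, 5-fold serial dilution) for a line-specific time at 37°C, 5% CO2. Viability read by CCK-8; IC50 fitted from growth-inhibition curves.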

The subject of the next test is Jurkat. In words: CCK-8 proliferation, Jurkat. Particulars: Homo sapiens; Table B10, compounds designed based on the IRAK4 inhibitors; Jurkat cells; read-out: Inhibitory activity (IC50, nM) on tumor cell proliferation, Jurkat. It is filed as cell-based, Human. The procedure, abridged: as §3
Another test has as its system MGC-803. In words: CCK-8 proliferation, MGC-803 (heads: MGC80-3, MGC803). Particulars: Homo sapiens, MGC-803; for IC50: Table B10, compounds designed based on the IRAK4 inhibitors, MGC803 cells, read-out: Inhibitory activity (IC50, nM) on tumor cell proliferation, MGC803; for pIC50: CCK-8, 72 hours, read-out: Inhibitory activity (IC50) on tumor cell proliferation, MGC80-3. It is filed as cell-based, Human. On the procedure:
as §1, §2

Another test deals with MM.1S. In words: CCK-8 proliferation, MM.1S. The class given is cell-based. Particulars: Homo sapiens, MM1.S; Table B10, compounds designed based on the IRAK4 inhibitors; MM.1S cells; read-out: Inhibitory activity (IC50, nM) on tumor cell proliferation, MM.1S. The procedure, abridged:
as §3

Another test concerns BXPC-3. Kind of test: CCK-8 proliferation, BXPC-3. It is filed as cell-based. To be noted: Homo sapiens, 96 hours, read-out: Inhibitory activity (IC50) on tumor cell proliferation, BXPC-3. Here is the method:
as §1, §2

Another test deals with CCRF-CEM. Kind of test: CCK-8 proliferation, CCRF-CEM. The class given is cell-based, Human. To be noted: Homo sapiens. Put shortly:
as §3

The test system of another test is SW620. Kind of test: CCK-8 proliferation, SW620. The class given is cell-based. To be noted: Homo sapiens, SW-620; CCK-8; 96 hours; read-out: Inhibitory activity (IC50) on tumor cell proliferation, SW620. Put shortly:
as §3

The next test deals with T1, IRAK4 (Homo sapiens, UniProt Q9NWZ3).
T1 construct: evaluate the effects of the compounds of the present disclosure on the expression of target proteins in cells; endogenous in cells; host or cells: hPBMC
T1 sequence (Q9NWZ3 1-460): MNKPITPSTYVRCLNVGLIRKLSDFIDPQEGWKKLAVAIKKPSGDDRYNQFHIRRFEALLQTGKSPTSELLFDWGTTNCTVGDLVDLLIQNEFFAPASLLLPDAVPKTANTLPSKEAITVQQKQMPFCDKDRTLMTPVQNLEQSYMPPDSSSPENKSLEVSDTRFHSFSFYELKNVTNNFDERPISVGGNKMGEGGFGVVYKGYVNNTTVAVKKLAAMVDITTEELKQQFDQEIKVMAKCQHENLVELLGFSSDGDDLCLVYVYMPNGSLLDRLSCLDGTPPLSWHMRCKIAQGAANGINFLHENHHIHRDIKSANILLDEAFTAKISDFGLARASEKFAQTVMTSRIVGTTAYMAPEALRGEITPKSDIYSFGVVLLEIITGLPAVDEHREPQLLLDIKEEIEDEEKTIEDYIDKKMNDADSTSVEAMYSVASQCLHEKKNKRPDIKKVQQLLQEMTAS
Kind of test: Western blot degradation of IRAK4 (hPBMC). The class given is cell-based. Particulars: Table D1. Put shortly: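 Quantification by ImageJ densitometry of Western blot bands: DC50 is the fitted concentration halving band intensity relative to DMSO. Percent remaining uses internal-control normalization, and degradation rate is its complement.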
On the technique in general: In western blotting, separated proteins are transferred to a membrane and probed.

In the next test the test system is MV-4-11. Kind of test: CCK-8 proliferation, MV-4-11. It is filed as cell-based, Human. To be noted: Homo sapiens, MV4-11; Table B10, compounds designed based on the IRAK4 inhibitors; MV-4-11 cells; read-out: Inhibitory activity (IC50, nM) on tumor cell proliferation, MV-4-11. The procedure, abridged: as §3
For test [1], the target named is T2, human Cereblon WT GST-tagged protein (Homo sapiens, UniProt Q96SW2).
T2 construct: purchased CISBIO 64BDCRBNPEH
Kind of test: CRBN binding, HTRF (CEREBLON BINDING kit). Particulars: Table II-1, CRBN binding, HTRF. The procedure, abridged: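 Competitive HTRF: GST-tagged human WT Cereblon mixed with compound, Thalidomide-Re tracer and GST Eu antibody, incubated 3 h at room temperature. Signals read at 620 and 665 nm.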
For orientation: TR-FRET usually uses a lanthanide donor and a delayed reading to cut background.

T2 sequence (Q96SW2 whole entry): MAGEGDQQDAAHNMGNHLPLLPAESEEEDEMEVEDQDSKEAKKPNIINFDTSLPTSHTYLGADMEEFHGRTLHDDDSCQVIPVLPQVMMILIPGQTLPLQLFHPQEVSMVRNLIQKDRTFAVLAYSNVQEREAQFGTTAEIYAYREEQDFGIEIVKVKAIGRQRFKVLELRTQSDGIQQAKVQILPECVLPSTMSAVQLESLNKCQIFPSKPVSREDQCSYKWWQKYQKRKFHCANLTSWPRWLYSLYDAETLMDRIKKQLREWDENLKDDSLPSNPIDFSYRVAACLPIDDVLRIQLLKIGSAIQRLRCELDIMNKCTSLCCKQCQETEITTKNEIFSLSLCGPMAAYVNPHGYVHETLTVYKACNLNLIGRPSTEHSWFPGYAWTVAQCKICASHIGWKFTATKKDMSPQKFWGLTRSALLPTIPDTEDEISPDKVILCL

In the case of `O=C1CCC(c2ccc(CN3CCN(c4ccc(-n5cc(NC(=O)c6coc(-c7ccnc(NCC(F)(F)F)c7)n6)c(C(F)F)n5)cc4)CC3)cc2)C(=O)N1` (stereo not shown) [GT-04273, N-(3-(difluoromethyl)-1-(4-(4-(4-(2,6-dioxopiperidin-3-yl)benzyl)piperazin-1-yl)phenyl)-1H-pyrazol-4-yl)-2-(2-((2,2,2-trifluoroethyl)amino)pyridin-4-yl)oxazole-4-carboxamide], the IC50 lay within 100 to 500 nM in the test on LNcap; 50 to 100 nM in the test on H1299; 50 to 100 nM in the test with SR; 1 to 10 nM in the test with Jurkat; 10 to 50 nM in the test on MGC-803; 1 to 10 nM in the test with MM.1S.

With `Cc1ccc(-c2c(C)noc2C)cc1N(CC1CCN(Cc2ccc(C3CCC(=O)NC3=O)cc2)CC1)c1ccc(C2(C#N)CC2)cc1` (stereo not shown) [GT-04839, 1-(4-((5-(3,5-dimethylisoxazol-4-yl)-2-methylphenyl)((1-(4-(2,6-dioxopiperidin-3-yl)benzyl)piperidin-4-yl)methyl)amino)phenyl)cyclopropane-1-carbonitrile], the pIC50 was 7.00 to 7.30 in the test with BXPC-3; 6.00 to 6.30 in the test with CCRF-CEM (CCRF-CEM, CCK-8, 96 hours, read-out: Inhibitory activity (IC50) on tumor cell proliferation, CCRF-CEM); 6.00 to 6.30 in the test on SW620; 6.00 to 6.30 with MGC-803.

For the compound `Cc1ccc(-c2c(C)noc2C)cc1N(CC1CCN(Cc2ccc(C3CCC(=O)NC3=O)c(F)c2)CC1)c1ccc(C2(C#N)CC2)cc1` (stereo not shown) [GT-04840, 1-(4-((5-(3,5-dimethylisoxazol-4-yl)-2-methylphenyl)((1-(4-(2,6-dioxopiperidin-3-yl)-3-fluorobenzyl)piperidin-4-yl)methyl)amino)phenyl)cyclopropane-1-carbonitrile], the values for the pIC50 in the test with BXPC-3, with SW620 and with MGC-803 were 7.30 to 8.00, 6.30 to 7.00 and 6.30 to 7.00, respectively.

In the case of `O=C1CCC(Nc2cccc(CN3CCN(c4ccc(-n5cc(NC(=O)c6coc(-c7ccnc(NCC8CC8)c7)n6)c(C(F)F)n5)cc4)CC3)c2)C(=O)N1` (stereo not shown) [GT-04969, 2-(2-((cyclopropylmethyl)amino)pyridin-4-yl)-N-(3-(difluoromethyl)-1-(4-(4-(3-((2,6-dioxopiperidin-3-yl)amino)benzyl)piperazin-1-yl)phenyl)-1H-pyrazol-4-yl)oxazole-4-carboxamide], the “Degradation of substrate protein IRAK4 (substrate protein remaining %)” value (“Degradation … (substrate protein remaining %)” below) on IRAK4 is recorded as “A (A is defined as 0% ≤ substrate protein remaining % ≤ 80%)”. Also, the IC50 in the test on H1299, in the test on SR, in the test with Jurkat, with MGC-803 and in the test on MM.1S was 100 to 500 nM in each case.

In the case of `O=C1CCN(c2ccc(CN3CCN(c4ccc(-n5cc(NC(=O)c6coc(-c7ccnc(NCC8CC8)c7)n6)c(C(F)F)n5)cc4)CC3)cn2)C(=O)N1` [GT-04970, 2-(2-((cyclopropylmethyl)amino)pyridin-4-yl)-N-(3-(difluoromethyl)-1-(4-(4-((6-(2,4-dioxotetrahydropyrimidin-1(2H)-yl)pyridin-3-yl)methyl)piperazin-1-yl)phenyl)-1H-pyrazol-4-yl)oxazole-4-carboxamide], at IRAK4, the “Degradation … (substrate protein remaining %)” value was “A (A is defined as 0% ≤ substrate protein remaining % ≤ 80%)”. In addition, the IC50 fell in the range of 100 to 500 nM in the test with H1299; 50 to 100 nM in the test on SR; 100 to 500 nM in the test on Jurkat; 50 to 100 nM in the test on MGC-803; 50 to 100 nM with MM.1S.

`O=C1CCC(c2ccc(CN3CCN(c4ccc5c(c4)nc(NC(=O)c4cccc(C(F)(F)F)c4)n5C4CCC(CO)CC4)CC3)cc2)C(=O)N1` (stereo not shown) [GT-04981, N-(5-(4-(4-(2,6-dioxopiperidin-3-yl)benzyl)piperazin-1-yl)-1-((1s,4s)-4-(hydroxymethyl)cyclohexyl) -1H-benzo[d]imidazol-2-yl)-3-(trifluoromethyl)benzamide]: the “Degradation … (substrate protein remaining %)” value on IRAK4 is reported as “A (A is defined as 0% ≤ substrate protein remaining % ≤ 80%)”. For the same compound, the IC50 was 500 to 1000 nM in the test with H1299; 100 to 500 nM in the test on SR; 500 to 1000 nM in the test with Jurkat; 500 to 1000 nM in the test with MGC-803; 100 to 500 nM in the test on MM.1S.

For the compound `O=C1CCN(c2ccc(CN3CCN(c4ccc5c(c4)nc(NC(=O)c4cccc(C(F)(F)F)c4)n5[C@H]4CC[C@@H](CO)CC4)CC3)cc2)C(=O)N1` [GT-04982, N-(5-(4-(4-(2,4-dioxotetrahydropyrimidin-1(2H)-yl)benzyl)piperazin-1-yl)-1-((1s,4s)-4-(hydroxymethyl)cyclohexyl) -1H-benzo[d]imidazol-2-yl)-3-(trifluoromethyl)benzamide], the “Degradation … (substrate protein remaining %)” value at IRAK4 was “A (A is defined as 0% ≤ substrate protein remaining % ≤ 80%)”. Moreover, the IC50 lay in the range of 100 to 500 nM in the test with H1299; 100 to 500 nM with SR; 100 to 500 nM in the test on Jurkat; 100 to 500 nM in the test on MGC-803; 50 to 100 nM with MM.1S.

As to `O=C1CCN(c2ccc(CN3CCN(c4ccc5c(c4)nc(NC(=O)c4cccc(C(F)(F)F)c4)n5[C@H]4CC[C@@H](CO)CC4)CC3)nc2)C(=O)N1` [GT-04986, N-(5-(4-((5-(2,4-dioxotetrahydropyrimidin-1(2H)-yl)pyridin-2-yl)methyl)piperazin-1-yl)-1-((1s,4s)-4-(hydroxymethyl)cyclohexyl) -1H-benzo[d]imidazol-2-yl)-3-(trifluoromethyl)benzamide], the “Degradation … (substrate protein remaining %)” value at IRAK4 is listed as “A (A is defined as 0% ≤ substrate protein remaining % ≤ 80%)”. Further, the IC50 in the test with H1299, in the test with SR, in the test with Jurkat, in the test on MGC-803 and with MM.1S was 100 to 500 nM throughout.

Take `CC[C@@H]1[C@H](F)C(=O)N[C@@H]1COc1nccc2cc(C(N)=O)c(OC)cc12` [PF06650833, reference compound]: the IC50 with LNcap is above 10000 nM; with H1299 it was 5000 to 10000 nM; in the test with SR it was 1000 to 5000 nM; in the test with CCRF-CEM (Table B10, compounds designed based on the IRAK4 inhibitors, CCRF-CEM cells, read-out: Inhibitory activity (IC50, nM) on tumor cell proliferation, CCRF-CEM), 5000 to 10000 nM; in the test with MV-4-11, 1000 to 5000 nM; in the test on Jurkat, above 10000 nM. The IC50 in the test with MGC-803 is 5000 to 10000 nM; in the test with MM.1S, above 10000 nM. Further, the pIC50 in test [1] is below 5.00.
